According to patent US20260072027A1, “Peptides And Method” (Queen Mary University of London, priority 2022, published 2026):
Where no end group is shown, it is not given here.

Legend:
[1] = tested on: serum IgG autoantibodies; assay: ELISA for autoantibody detection: serum antibody binding to native and oxPTM insulin peptides; set-up: species or system human; settings: for % binders, Healthy controls / Mean ± SEM (absorbance, OD), Healthy controls / % binders, Type 1 diabetes: Study cohort 1; for % binders, Type 1 diabetes: cut-off = mean of healthy controls to Nt-INSP plus 3 SEM; for Mean ± SEM (absorbance, OD), Type 1 diabetes: Study cohort 1 sera
Protocol: ELISA for autoantibody detection. The ELISA analysis of Nt-INS and oxPTM-INS autoantibodies was performed as previously described [18](detailed in ESM methods, ELISA assay for antibody detection).
Statistical analyses. Statistical analyses were performed using Prism Software 9.0 (GraphPad, San Diego, CA, USA). Cut-off points of positivity (binders) in the antibody ELISA for each peptide were defined by the mean of optical absorbance (O.D) of healthy controls to the corresponding Nt-INSP plus three times the standard error of the mean (SEM). Specificity and sensitivity were evaluated by receiver operating characteristic (ROC) curve analysis. Area under the curve (AUC) is reported as absolute value and was tested for equality according to DeLong et al. Differences in antibody levels and T-cell stimulation indices (SI) between groups were tested by the One way ANOVA or Student's t-tests as appropriate. Correlation analyses were tested by Pearson or Spearman's test, as appropriate. Categorical analyses were performed by Chi-square or McNemar's tests, as appropriate. For each set of experiments, p values were adjusted for multiple comparison using the Holm-Sidak's test. Hierarchical cluster and Principal Component Analysis (PCA) was done using Clustvis software (https://biit.cs.ut.ee/clustvis/) and Prism Software 9.0, respectively.
Antibody reactivity of type 1 diabetes serum against the candidate oxPTM-INSP. Identified peptide candidates were synthesised and exposed to either HOCl or ^●OH to generate oxPTM-INSPs that were first assessed by TOF-MS/ES+TIC to confirm modification (FIG. 17). Antibody response against native INSPs (Nt-INSPs) and oxPTM-INSPs was evaluated by ELISA using sera from Study cohort 1.
ESM Methods ELISA assay for antibody detection. The ELISA analysis of native (Nt-INS) and modified insulin (oxPTM-INS) was performed as previously described. Briefly, the ELISA plate was coated overnight at 4° C. with 100 μl per well of modified or native insulin in 0.05 M carbonate/bicarbonate buffer pH 9.6 at 10 μg/ml. The next day, the plates were washed 3 times with 0.1% Tween PBS, followed by blocking for 2 hours at room temperature with 200 μl per well of 5% BSA in 0.1% Tween PBS. After washing, 100 μl of 1:200-diluted serum samples in 5% BSA-0.1% Tween PBS were added for additional 2 hours incubation. ELISA plates were then washed 3 times with 0.1% Tween PBS followed by probing with anti-human IgG horse radish peroxidase conjugated (HRP, Sigma) at 1:1,000 dilution in 5% BSA-0.1% Tween PBS for another 1.5 hours incubation. The ELISA plates were washed, and 100 μg/ml TMB substrate in 0.1M sodium acetate pH 6.0 plus 2 μl/10 ml of H2O2, were added. Subsequently, the reaction was stopped with 20% v/v sulphuric acid. The optical density (O.D.) was measured at 450 nm using a GENios plate reader and Magellan software (TECAN, Dorset, UK).

[2] = tested on: autoantibodies to oxPTM-INS; assay: Competitive displacement ELISA, plate coated with oxidised insulin; type: binding, human; settings: type 1 diabetes sera pre-incubated with peptide
Protocol: A competitive displacement assay was performed to map the exact epitope, namely the exact amino acid sequence binding specificities and to test the binding to native peptides versus oxidised insulin peptides. The binding to the peptide was done by direct ELISA on the native or modified peptides or by competition ELISA. Initially native synthetic peptide was oxidised by exposing to 0.05 mM CuCl2; 90 mM H2O2; 10 mM NaOCl. Native and modified peptides were fractionated by AKTA to evaluated changes in molecular profile. AKTA fractions were then tested by ELISA for reactivity (FIGS. 2 and 3). We next perform competition ELISA with the native peptides and peptides exposed to 0.05 mM CuCl2; 90 mM H2O2; 10 mM NaOCl. Serum samples were pre-incubated with either native insulin peptides or oxidised insulin peptides. Finally, based on the amino acid sequence of the identified peptides we predicted the amino acids that would be oxidised by ^●OH and HOCl and designed synthetic peptides that contain the oxidised amino acids in the synthesis. Synthetic peptides were produced by standard commercially available methods, specifically by Peptide Protein Research Ltd. Briefly, peptide synthesis was performed by automated solid phase peptide synthesis (SPPS), which was followed by purification. Each individual amino acid was added to the growing chain according to the sequence. Where specified, dihydroxyphenylalanine was added to replace Tyr or cysteate were added to replace Cys. Similarly, these peptides were tested by competition ELISA. The table below describe the different competition ELISA performed:
Serum samples from children with type 1 diabetes were pre-incubated with the synthetic peptides before they were added to the native insulin or oxidised that were previously coated on the ELISA plate. If the antibodies in the serum sample bind to the peptide they will no longer bind to the insulin or oxidised insulin on the plate-competition ELISA. 1:200 dilutions of serum samples from T1D serum samples were pre-incubated for 2 hr at room temperature with the various peptides as shown in the table above. After incubation, serum/peptide mix was added to the ELISA plate previously coated overnight with either native insulin or oxidised insulin for an additional 2 hr incubation. Plates were then washed in a plate washer three times with PBS 0.05% tween. After washing, 100 ul of anti-human IgG diluted 1:1000 in 1% milk-PBS 0.05% tween were added for additional 1 hour and 30 min incubation. After washing, ELISA was developed by adding 100 ul of TMB (10 mg/ml in DMSO) in 10 ml of 0.1 M sodium acetate plus 2 ul of H2O2. Reaction was stopped by adding 0.5 M H2SO4 (usually 20 min for insulin ELISA).
To assess the binding specificity of serum samples to identified peptides, a competitive ELISA was performed. The ELISA was carried out following the method described above, except that the serum samples were pre-incubated for 2 h with and without 10 μg/ml peptides as competitors, before adding the serum samples to the insulin coated ELISA plate.

[3] = tested on: CD4+ T-cells (PBMCs); assay: In vitro peptide stimulation and T-cell proliferation assay, CD4+; type: cell-based, human
Text: (§1) In vitro peptide stimulation and T-cell proliferation assay. Peripheral blood mononuclear cells (PBMCs) were freshly isolated from type 1 diabetes and healthy individuals using Ficoll-Hypaque density gradient centrifugation. PBMCs were labelled with the fluorescent dye CellTrace Violet (Invitrogen, Thermo Fisher Scientific) and cultured (2×10^5 cells/well) in round-bottom 96-well plates (Falcon, Becton Dickinson) with RPMI-1640 medium (Gibco, Thermo Fisher Scientific) supplemented with 5% autologous plasma in the presence or not of insulin peptides (20 μg/ml); PPD (10 μg/ml) and anti-CD3 (0.1 μg/ml; clone OKT3) were used as positive control. Two scrambled peptides: […] (SEQ ID NO: 17), […] (SEQ ID NO: 18), and the Exendin 9-39 fragment were used as negative controls. After 7 days, PBMCs were stained with PE-Cy7 anti-CD8 (clone RPA-T8, BD Pharmingen) and FITC anti-CD3 (clone UCHT1, BD Pharmingen). Samples were analysed by using a FACSCanto II (BD Bioscience) to evaluate T-cell proliferation measured as CellTrace Violet dilution. Cytofluorimetric analyses were performed using FlowJo Software (FlowJo, LLC). The results were given as stimulation index (SI), calculated as percentage of stimulated T-cell subset proliferation/percentage of unstimulated T-cell subset proliferation. Assay for detection of peptide specific T cells subsets was done as previously described (detailed in ESM methods, Assay for detection of peptide specific T cells)
(§2) T-cell stimulation with oxPTM-INSPs. To evaluate the immune cell response against the oxPTM-INSPs, we performed CD4+ and CD8+ T cells proliferation experiments using freshly isolated PBMCs (Study cohort 2, Table 1). Response was calculated as stimulatory index (SI) over unstimulated T-cells.

[4] = tested on: CD8+ T-cells (PBMCs); assay: In vitro peptide stimulation and T-cell proliferation assay, CD8+; type: cell-based, human
Text: as §1, §2

Sequence: ERGFFYTPKT (Ac-ERGFFYTPKT) [insulin B:21-30 native peptide]
- % binders, Healthy controls ([1]; in house modifications): 10%
- Mean ± SEM (absorbance, OD), Healthy controls ([1]; in house modifications): 0.263 ± 0.023
- % binders, Type 1 diabetes ([1]; in house modifications): 66%
- % binders, Healthy controls ([1]; in silico modifications): 16%
- Mean ± SEM (absorbance, OD), Healthy controls ([1]; in silico modifications): 0.263 ± 0.020
- % binders, Type 1 diabetes ([1]; in silico modifications): 63%
- Mean ± SEM (absorbance, OD), Type 1 diabetes ([1]; in house modifications): 0.435 ± 0.014
- Mean ± SEM (absorbance, OD), Type 1 diabetes ([1]; in silico modifications): 0.423 ± 0.012
- reduced binding to oxidised whole insulin [2]: 35-70%

Sequence: ERGYYYTPKTR (Ac-ERGYYYTPKTR) [oxPTM-INSP-6 version with a C-terminal arginine]
- % binders, Healthy controls ([1]; in silico modifications): 48%
- Mean ± SEM (absorbance, OD), Healthy controls ([1]; in silico modifications): 0.423 ± 0.039
- % binders, Type 1 diabetes ([1]; in silico modifications): 88%
- Mean ± SEM (absorbance, OD), Type 1 diabetes ([1]; in silico modifications): 0.697 ± 0.058
- CD4+ T-cell response, subjects with SI > 1 (%) ([3]; Controls (N = 11)): (63.6%)
- CD4+ T-cell response, subjects with SI > 3 (%) ([3]; Controls (N = 11)): (27.3%)
- CD4+ T-cell response, subjects with SI > 5 (%) ([3]; Controls (N = 11)): (0.0%)
- CD4+ T-cell response, subjects with SI > 10 (%) ([3]; Controls (N = 11)): (0.0%)
- CD4+ T-cell response, subjects with SI > 1 (%) ([3]; Type 1 diabetes (N = 18)): (72.2%)
- CD4+ T-cell response, subjects with SI > 3 (%) ([3]; Type 1 diabetes (N = 18)): (38.9%)
- CD4+ T-cell response, subjects with SI > 5 (%) ([3]; Type 1 diabetes (N = 18)): (15.8%)
- CD4+ T-cell response, subjects with SI > 10 (%) ([3]; Type 1 diabetes (N = 18)): (16.7%)
- CD8+ T-cell response, subjects with SI > 1 (%) ([4]; Controls (N = 11)): (18.2%)
- CD8+ T-cell response, subjects with SI > 3 (%) ([4]; Controls (N = 11)): (9.10%)
- CD8+ T-cell response, subjects with SI > 5 (%) ([4]; Controls (N = 11)): (9.1%)
- CD8+ T-cell response, subjects with SI > 10 (%) ([4]; Controls (N = 11)): (9.1%)
- CD8+ T-cell response, subjects with SI > 1 (%) ([4]; Type 1 diabetes (N = 18)): (55.6%)
- CD8+ T-cell response, subjects with SI > 3 (%) ([4]; Type 1 diabetes (N = 18)): (16.7%)
- CD8+ T-cell response, subjects with SI > 5 (%) ([4]; Type 1 diabetes (N = 18)): (16.7%)
- CD8+ T-cell response, subjects with SI > 10 (%) ([4]; Type 1 diabetes (N = 18)): (16.7%)
